Measured values reported in PMC11579945, “Identification of Potential Inhibitors of Mycobacterium tuberculosis Amidases: An Integrated In Silico and Experimental Study” (ACS Omega, 2024).
“And” between values parts separate entries of the source, which are not always exact repeats. Equal entries are not always repeated.

How the values were obtained:
Ami1 [1] = biological target: T1, Ami1 (Mycobacterium tuberculosis, UniProt I6Y4D2); experiment: Differential scanning fluorimetry (DSF, thermal shift) with Ami1; format: binding; details: for Kd: 10 μM Ami1, fitted with Thermott, triplicate, read-out: dissociation constant (Kd); for increase of the melting temperature (Tm) of the amidase: compared to Tm of the protein in the absence of any compound
T1 sequence (I6Y4D2 25-241 limits assumed): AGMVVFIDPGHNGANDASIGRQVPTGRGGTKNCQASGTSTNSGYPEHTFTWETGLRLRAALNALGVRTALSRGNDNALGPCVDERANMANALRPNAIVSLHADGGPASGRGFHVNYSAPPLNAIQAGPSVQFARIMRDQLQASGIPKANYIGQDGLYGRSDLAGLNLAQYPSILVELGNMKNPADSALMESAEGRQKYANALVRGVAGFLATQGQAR
Description: DSF assays were conducted using a QuantStudio3 real-time PCR system from Thermo Fisher Scientific, with a MicroAmp Fast 96-well reaction plate and covered with the MicroAmp Optical Adhesive Film (both from Thermo Fisher Scientific). The final reaction volume in each well was 20 μL, containing 10 μM Ami1 in buffer (20 mM HEPES pH 7.5, 100 mM NaCl, 1% DMSO) and 5× SYPRO Orange, either in the absence or presence of various concentrations of compounds. As a control, identical experiments were performed without protein. The temperature was increased from 25 to 99 °C at a gradual rate of 0.2 °C per 12.5 s. Data analysis and dissociation constants (Kd) were determined using the Thermott web application (https://thermott.com).[37],[38] Melting curves were exported from Thermott and visualized using the GraphPad Prism program. All experiments were performed by triplicate.

Ami1 [2] = biological target: T1, Ami1; details: 10 mM EDTA; cited from earlier work
Ami1 [3] = biological target: T1, Ami1; format: binding; details: ITC
Ami1Mab = tested on: Ami1Mab; set-up: method as in PMID 33158165; details: cited from earlier work

In the case of `O=C(NNc1ccc([N+](=O)[O-])cc1[N+](=O)[O-])c1ccccc1` [1a, N′-(2,4-Dinitrophenyl)benzohydrazide], the Kd (Ami1 [1]; DSF) is reported as 2.71 ± 0.55 µM.

Molecule `COc1ccc(C(=O)NNc2ccc([N+](=O)[O-])cc2[N+](=O)[O-])cc1` [1b, N′-(2,4-Dinitrophenyl)-4-methoxybenzohydrazide] has a Kd (Ami1 [1]; DSF) of 4.27 ± 1.13 µM.

`O=C(NNc1ccc([N+](=O)[O-])cc1[N+](=O)[O-])c1ccc(Cl)cc1` [1c, 4-Chloro-N′-(2,4-dinitrophenyl)benzohydrazide] showed a Kd (Ami1 [1]; DSF) of 9.07 ± 1.88 µM.

Work on `O=C(NNc1ccc([N+](=O)[O-])cc1[N+](=O)[O-])c1ccc(F)cc1` [1d, N′-(2,4-Dinitrophenyl)-4-fluorobenzohydrazide] yielded a Kd (Ami1 [1]; DSF) of 1.65 ± 0.39 µM.

For `O=C(C=Cc1ccccc1)NNc1ccc([N+](=O)[O-])cc1[N+](=O)[O-]` [1e, N′-(2,4-Dinitrophenyl)cinnamohydrazide], the “increase in Kd compared with derivates 1a–1d” value (Ami1 [1]; DSF) was 10 fold and the Kd (Ami1 [1]; DSF) was 36.1 ± 7.1 µM.

In the case of `O=C(NNc1ccc([N+](=O)[O-])cc1[N+](=O)[O-])C1CC1` [1f, N′-(2,4-Dinitrophenyl)cyclopropanecarbohydrazide], the “interaction with Ami1” value (Ami1 [1]; DSF dose-response) is reported as “no interaction”.

In the case of `O=C(O)CN(CCN(CC(=O)O)CC(=O)O)CC(=O)O` [EDTA], the “hydrolytic activity of Ami1 after treatment” value (Ami1 [2]) is given as “abolished”.

For `O=C(NNc1ccc([N+](=O)[O-])cc1[N+](=O)[O-])C1CC1c1ccccc1` (stereo not shown) [compound 1], the Kd (Ami1 [1]; DSF) was 6.69 ± 0.79 µM and the “increase of the melting temperature (Tm) of the amidase” value (Ami1 [1]) was “approximately 2 °C”.

In the case of `Ic1ccccc1-c1nn[nH]n1` [compound 5], the Kd (Ami1 [1]; DSF) is reported as 39 ± 6.1 µM, the “increase of the melting temperature (Tm) of the amidase” value (Ami1 [1]) is reported as “approximately 2 °C” and the ΔGb (Ami1 [3]; 25 °C, pH 7.5) is reported as “–6.02 kcal/mol”. For the same molecule, the ΔHb (Ami1 [3]; 25 °C, pH 7.5) was “–0.37 ± 0.08 kcal/mol” and the “n (stoichiometry)” value (Ami1 [3]; single binding-site model) was 0.7 and 0.7 ± 0.1.

For `Nc1ccccc1-c1nnn[nH]1` [inhibitor II], the “concentration from which inhibition of the hydrolytic activity of Ami1Mab was observed” value (Ami1Mab) is listed as at least 800 µM.
